pIC50: −log10 of the molar value. A value given as a limit tells only on which side of the number the result lay.

The test system of one data set is BXPC-3. The experiment in a line: CellTiter-Glo cell proliferation, BxPC-3 pancreatic cancer cells. The conditions noted are these: Homo sapiens, read-out: IC50 category. The class given is cell-based. An excerpt:
Cell culture and treatment of pancreatic cancer cell lines: Pancreatic cancer cells lines BxPC-3, SW1990, and PANC-1 used in the experiments presented herein can be obtained from ATCC. The cells can be cultured and passaged in complete growth medium (RPMI-1640, Dulbecco's Modified Eagle Medium, or Leibovitz's L-15 medium) that has been supplemented with fetal bovine serum to a final concentration of 10%.
Effects of Compound-5B on proliferation and Id-1 expression in pancreatic cell lines. Compound-5B was next tested for inhibition of cell viability/proliferation in the three pancreatic cancer cell lines and two primary patient-derived cancer cell lines. Compound-5B inhibited cell viability/proliferation of all the cancer cell lines (Table 2). The culturing condition for the pancreatic cell lines was similar to those used in the breast cancer lines, with the exception of the primary patient-derived pancreatic cancer cell lines (PANC9 and PANC13). […] Cell proliferation of pancreatic cells in the presence of drug was measured using the CellTiter-Glo luminescent Assay and IC50 values were calculated (Table 2). […]
For orientation: Cellular ATP, detected with luciferase, serves as a proxy for viable cell number.

The test system of another data set is PANC9. The experiment in a line: CellTiter-Glo cell proliferation, patient-derived PANC9 tumorspheres. The class given is cell-based. The conditions noted are these: Homo sapiens, 72 h, three days treatment, read-out: IC50 category. An excerpt: (§1) Effects of Compound-5B on proliferation and Id-1 expression in pancreatic cell lines. Compound-5B was next tested for inhibition of cell viability/proliferation in the three pancreatic cancer cell lines and two primary patient-derived cancer cell lines. Compound-5B inhibited cell viability/proliferation of all the cancer cell lines (Table 2). The culturing condition for the pancreatic cell lines was similar to those used in the breast cancer lines, with the exception of the primary patient-derived pancreatic cancer cell lines (PANC9 and PANC13). For determining inhibition of cell proliferation in patient-derived pancreatic cancer cells were cultured in a T75 ultra low attachment flasks with DMEM/F12 media supplemented with B27, penicillin/streptomycin (10,000 u/mL), 50 µg/mL human epidermal growth factor (hEGF), 50 μg/mL human fibroblast growth factor, and 5 μg/mL heparin. Cells were plated in a 384-well plate and incubated for three days to promote the formation of tumorspheres. Cells were then treated with Compound-5B for three days. Cell proliferation of pancreatic cells in the presence of drug was measured using the CellTiter-Glo luminescent Assay and IC50 values were calculated (Table 2). The IC50 and corresponding 95% confidence limits (CL) were calculated using non-linear regression analysis.

The test system of the next data set is PANC13. The experiment in a line: CellTiter-Glo cell proliferation, patient-derived PANC13 tumorspheres. The class given is cell-based. The note with it: Homo sapiens, 72 h, three days treatment, read-out: IC50 category.
Text: as §1

Data set [1] concerns Id-1. The experiment in a line: Id-1 expression in primary patient-derived BRC25 cells. The class given is cell-based, human. As to the method:
(§2) Quantitative Western analysis: Cells are cultured and treated in 6-well dishes. After the cells are washed twice with cold PBS, lysis buffer is added. The cells are then lysed by freezing for 10 min at −70° C. and then thawing at ambient temperature. The cell lysate is collected and the protein content is determined by using Bradford reagent. Equal amounts of protein are heated at 90° C. in Laemmli sample buffer which also included β-mercaptoethanol. The samples are then loaded onto a precast SDS-PAGE gel (Bio-Rad Laboratories, Hercules, CA). After which, proteins are then electroblotted onto an Immobilon membrane (Millipore, Billerica, MA) overnight at 2-4° C. The membrane is then blocked for 1 hour with 5% nonfat dry milk which included TBS+Tween. The membranes are then incubated with an anti-Id-1 primary antibody, and then an appropriate secondary antibody was used. Blots are incubated for 45 min and then washed 4 times with TBS+Tween for 15 min each. […]
Effects of Compound-5B on breast cancer cell proliferation, Id-1 expression and invasion in culture. […] The ability of the cells to migrate and invade in modified Boyden chambers was determined. The percentage relative invasion was calculated as the effect on treated cells/vehicle cells×100. […]

The subject of data set [2] is Id-1. The experiment in a line: Id-1 protein expression in 4T1 breast cancer cells. It counts as cell-based. The note with it: mouse 4T1 breast cancer cells. As to the method:
as §2, with “C.” for “C. The membrane is then blocked for 1 hour with 5% nonfat dry milk which included TBS+Tween. The membranes are then incubated with an anti-Id-1 primary antibody, and then an appropriate secondary antibody was used. Blots are incubated for 45 min and then washed 4 times with TBS+Tween for 15 min each.”
Antitumor activity of Compound-5B in vivo in breast cancer. […] We also determined whether it produced a similar effect in mouse 4T1 breast cancer cells. […] Lung metastasis % (total metastatic foci in treated/vehicle×100) was evaluated (FIG. 4B). […] Animals with established tumors (average volume of 100 mm^3) were randomized and treated once daily, 6 days a week, with i.p., injections of vehicle, or 1 mg/kg Compound-5B, tumors were measured once weekly by an operator blinded to the treatment groups. Changes in tumor volume (mm^3) were calculated as (length×width2)/2. *indicates statistically significant differences between vehicle and Compound-5B (p<0.05, Two-way ANOVA repeated measures, and Tukey's multiple comparisons test).

Data set [3] deals with Id-1. Put plainly: Id-1 expression in PANC-1 cells (Western analysis). It counts as cell-based, human. On the procedure: as §2, with “each. The blots are developed with SuperSignal Femto (Pierce, Rockford, IL), and imaged on either a Fluorchem 8900 (Alpha Innotech, San Leandro, CA) or ECL Hyperfilm (Amersham-Pharmacia, Piscataway, NJ). Band intensity values are obtained (after background subtraction) directly from the […] using AlphaeaseFC software (San Leandro, CA) or from film using Image-J (NIH, MD).” for “each.”

Data set [4] relates to MDA-MB231 breast cancer cells. The experiment in a line: Combination with paclitaxel, viability of MDA-MB231 cells (combination index). The class given is cell-based, human. The note with it: combination with paclitaxel at optimal combined ratios. On the procedure:
Concentration-response curves were generated for Compound-5B and paclitaxel alone and in combination (FIG. 2C). The inhibitory values from the concentration response curves were used to calculate combination index (CI) values at multiple combination ratios (FIG. 3A). Methods: Multiple viability assays in a 384 well format were run for each compound and the average percent inhibition of cell viability was calculated and transformed to fraction affected (Fa) e.g., percent inhibitory effect. CI values were calculated using Compusyn software (FIG. 3B). After determining the (IC50/Fa 0.5) values of the drugs individually (C), components were then combined at specific concentration ranges (FIG. 3B) and a combination index was calculated where CI<1, =1, and >1 indicate synergism, additive effect, and antagonism, respectively.

The next data set has as its system 4T1 cells. The experiment in a line: 4T1 lung metastasis model in BALB/c mice. The note with it: 4T1 tail vein, i.p. once a day, six days a week, three weeks. The class given is in vivo, mouse. As to the method: Antitumor activity of Compound-5B in vivo in breast cancer. Based on the activity of Compound-5B in culture, the antitumor activity of Compound-5B was tested in vivo in two models of breast cancer (FIG. 4). Compound-5B produced a potent inhibition of Id-1 expression in human MDA-MB231 cells (FIG. 1A). We also determined whether it produced a similar effect in mouse 4T1 breast cancer cells. This cell line is commonly used for seeding a lung metastatic model in mice. […] LC=loading control (FIG. 4A). […] Lung metastases were generated in BALB/c mice by tail vein injection of 4×10^4 4T1 cells. Two days after the injection, the tumor bearing mice were injected i.p. once a day, six days a week, with vehicle or Compound 5B three weeks. Lung metastasis % (total metastatic foci in treated/vehicle×100) was evaluated (FIG. 4B). […] Animals with established tumors (average volume of 100 mm^3) were randomized and treated once daily, 6 days a week, with i.p., injections of vehicle, or 1 mg/kg Compound-5B, tumors were measured once weekly by an operator blinded to the treatment groups. Changes in tumor volume (mm^3) were calculated as (length×width2)/2. *indicates statistically significant differences between vehicle and Compound-5B (p<0.05, Two-way ANOVA repeated measures, and Tukey's multiple comparisons test).

A further data set deals with T1, CYP2C9 (Homo sapiens, UniProt P11712).
T1 construct: purchased Eurofins
T1 sequence (P11712 whole entry): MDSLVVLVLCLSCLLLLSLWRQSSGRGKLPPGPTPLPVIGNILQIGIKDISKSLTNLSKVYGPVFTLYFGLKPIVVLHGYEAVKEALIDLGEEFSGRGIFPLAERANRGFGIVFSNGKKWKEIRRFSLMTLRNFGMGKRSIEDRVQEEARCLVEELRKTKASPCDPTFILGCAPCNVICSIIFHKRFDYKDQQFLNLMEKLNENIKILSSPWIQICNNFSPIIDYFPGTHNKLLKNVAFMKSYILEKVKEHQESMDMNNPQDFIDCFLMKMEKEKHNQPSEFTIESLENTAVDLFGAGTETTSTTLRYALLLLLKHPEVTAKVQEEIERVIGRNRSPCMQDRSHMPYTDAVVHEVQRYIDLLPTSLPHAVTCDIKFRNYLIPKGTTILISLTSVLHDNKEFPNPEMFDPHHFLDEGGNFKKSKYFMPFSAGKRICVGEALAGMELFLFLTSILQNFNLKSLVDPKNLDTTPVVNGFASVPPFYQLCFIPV
Put plainly: CYP2C9 inhibition. It counts as in vitro ADME. The conditions noted are these: 10 μM. As to the method: Evaluating ADME of Compound-5B in vitro. It is important to evaluate ADME first in culture as it allows for the selection of the best candidate for PK analysis in vivo. ADME analysis of Compound-5B was performed by Eurofins.

The target of data set [5] is T2, DRD1 (Dopamine receptor D1) (Homo sapiens, UniProt P21728).
T2 construct: purchased Eurofin's
T2 sequence (P21728 whole entry): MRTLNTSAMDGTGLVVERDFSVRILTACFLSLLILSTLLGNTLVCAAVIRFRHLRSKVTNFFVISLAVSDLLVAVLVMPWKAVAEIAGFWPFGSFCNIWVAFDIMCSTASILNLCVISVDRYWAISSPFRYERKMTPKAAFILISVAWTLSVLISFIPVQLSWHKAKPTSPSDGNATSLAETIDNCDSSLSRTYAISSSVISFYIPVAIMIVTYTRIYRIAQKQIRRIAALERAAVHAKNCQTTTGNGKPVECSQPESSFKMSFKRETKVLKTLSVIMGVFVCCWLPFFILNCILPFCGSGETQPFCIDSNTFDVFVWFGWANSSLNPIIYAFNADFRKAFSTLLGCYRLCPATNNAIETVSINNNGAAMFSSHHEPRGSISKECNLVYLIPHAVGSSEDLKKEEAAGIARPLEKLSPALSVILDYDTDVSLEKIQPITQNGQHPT
The experiment in a line: SAFETY scan E/IC50 ELECT, DRD1. The conditions noted are these: read-out: inhibition against DRD1 (mild). The class given is biochemical.

Regarding `CCCCCCC(C)(C)c1cc(O)c(C(=O)Nc2ccccc2)c(O)c1` [Compound 5B, 2,6-dihydroxy-4-(2-methyloctan-2-yl)-N-phenylbenzamide], the pIC50 is 5.30 to 6.00 in the data set with BXPC-3, over 6.30 in the data set with PANC9, over 6.30 in the data set on PANC13 and 6.12 to 6.19 in data set [5]. Besides, the entries for the “inhibition of Id-1 expression” value with Id-1 [1] and in the data set on Id-1 [3] were “significant potency” and “able to effectively inhibit Id-1 expression”, respectively. Moreover, the Id-1 protein expression result with Id-1 [2] is recorded as “downregulation of Id-1 protein expression”. Also, in [4], the “effect on paclitaxel inhibition of cell viability” value is recorded as “can enhance the ability of paclitaxel to inhibit the viability”. The lung metastasis result in the data set on 4T1 cells was “inhibits breast cancer metastasis”. The “inhibition of CYP2C9” value at CYP2C9 is listed as “some inhibition”.

Source of the values: patent publication US12612358B2, “Resorcinol-based compounds and uses thereof” (priority 2020, dated 2026).
